IC50 data for 25 compounds are collected here from patent US9670208B2, “Serine/threonine kinase inhibitors” (Array BioPharma Inc., priority 2013, dated 2017).

The target of test [1] is human ERK-2 (Mitogen Activated Kinase 1) (Homo sapiens (Human), UniProt P28482). Description: ERK-2 Enzymatic Assay. Type of test: biochemical. To be noted: ERK-2 enzyme, 25 μM ATP; single assay or mean of multiple assays; read-out: Biological Example 1 IC50.
In test [2] the test system is PMA-stimulated P90RSK(Ser380) phosphorylation in HepG2 cells. The test is described as follows: Cellular P90RSK(Ser380) Phosphorylation Assay. Type of test: cell-based. To be noted: Homo sapiens, 1.5 hours compound incubation, PMA 100 ng/mL, normalized to GAPDH, single assay or mean of multiple assays, read-out: Biological Example 2 IC50. As for the experimental part:
Inhibition of PMA-stimulated P90RSK(Ser380) phosphorylation was determined by the following in vitro cellular mechanistic assay, which comprises incubating cells with a compound for 1.5 hours and quantifying fluorescent pP90RSK(Ser380) signal on fixed cells and normalizing to GAPDH signal.
HepG2 cells were obtained from ATCC (Manassas, Va.) and grown in DMEM supplemented with 10% fetal bovine serum. Cells were plated in 96-well plates at 35,000 cells/well and allowed to attach overnight at 37° C./5% CO2. Diluted compounds were then added at a final concentration of 0.5% DMSO. After 1.5 hours compound incubation, cells were stimulated with the addition of phorbol 12-myristate 13-acetate (“PMA”) at a final concentration of 100 ng/mL; the PMA stimulation was a 30-minute incubation at 37° C./5% CO2. After the 30-minute PMA stimulation, cells were washed with phosphate buffered saline (“PBS”) and fixed in 3.7% formaldehyde in PBS at room temperature for 15-20 minutes. This was followed by another wash in PBS and then permeabilization in 100% MeOH at room temperature for 10-15 minutes. Following the permeabilization incubation, cells were washed in PBS/0.05% Tween-20, followed by a block in Odyssey blocking buffer (LI-COR Biosciences) for at least 1 hour. Antibodies to phosphorylated P90RSK(Ser380) (Cell Signaling #9335, rabbit monoclonal) and GAPDH (Fitzgerald 10R-G109a, mouse monoclonal) were added to the cells and incubated overnight at 4° C. pP90RSK(Ser380) antibody was used at a 1:250 dilution; GAPDH was used at a 1:10,000 dilution. After washing with PBS/0.05% Tween-20, the cells were incubated with fluorescently-labeled secondary antibodies (Anti-rabbit-Alexa Flour680, Invitrogen Cat#A21109; Anti-mouse-IRDye800CW, Rockland Inc. Cat#610-131-121) for 1 hour. Both secondary antibodies were used at a 1:1000 dilution. Cells were then washed and analyzed for fluorescence at both wavelengths using the Odyssey Infrared Imaging System (LI-COR Biosciences). Phosphorylated P90RSK(Ser380) signal was normalized to GAPDH signal.

human ERK-2 (Mitogen Activated Kinase 1), sequence (P28482 8-360): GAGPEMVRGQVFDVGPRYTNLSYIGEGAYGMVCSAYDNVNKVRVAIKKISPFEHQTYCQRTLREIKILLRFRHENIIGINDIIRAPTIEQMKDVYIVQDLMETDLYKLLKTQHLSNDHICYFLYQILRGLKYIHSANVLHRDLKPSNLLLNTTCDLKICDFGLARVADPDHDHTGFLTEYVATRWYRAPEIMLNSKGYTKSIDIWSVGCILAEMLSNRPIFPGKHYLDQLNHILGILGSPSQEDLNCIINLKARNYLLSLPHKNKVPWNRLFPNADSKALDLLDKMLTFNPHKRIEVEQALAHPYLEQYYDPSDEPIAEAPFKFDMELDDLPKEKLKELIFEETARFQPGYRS

For orientation: IC50 means the concentration at which inhibition is half-maximal. Turning to `CCC=Cc1nnc2cc(-c3ccnc(Nc4ccnn4C)n3)ccn12` (stereo in doubt) [Example 258, (E)-4-(3-(but-1-en-1-yl)-[1,2,4]triazolo[4,3-a]pyridin-7-yl)-N-(1-methyl-1H-pyrazol-5-yl)pyrimidin-2-amine], the IC50 is 5.7 nM in test [1] and 178 nM in test [2].
With `Cn1nccc1Nc1nccc(-c2ccn3c(Cc4cc(C5CC5)ccn4)nnc3c2)n1` [Example 35, 4-(3-((4-cyclopropylpyridin-2-yl)methyl)-[1,2,4]triazolo[4,3-a]pyridin-7-yl)-N-(1-methyl-1H-pyrazol-5-yl)pyrimidin-2-amine], the results for the IC50 in test [1] and in test [2] were 0.8 nM and 17 nM, respectively.
Take `COc1ccc(Cc2nnc3cc(-c4ccnc(Nc5ccnn5C)n4)ccn23)cc1F` [Example 40, 4-(3-(3-fluoro-4-methoxybenzyl)-[1,2,4]triazolo[4,3-a]pyridin-7-yl)-N-(1-methyl-1H-pyrazol-5-yl)pyrimidin-2-amine]: the IC50 amounted to 3.3 nM in test [1] and 6.5 nM in test [2].
Taken in the same sequence, the figures for `COc1ccc(Cc2nnc3cc(-c4ccnc(Nc5ccnn5C)n4)ccn23)cc1` [Example 49, 4-(3-(4-methoxybenzyl)-[1,2,4]triazolo[4,3-a]pyridin-7-yl)-N-(1-methyl-1H-pyrazol-5-yl)pyrimidin-2-amine] were 0.8 nM and 6.6 nM.
Taken in the same sequence, the figures for `Cn1nccc1Nc1nccc(-c2ccn3c(Cc4cccc(F)c4F)nnc3c2)n1` [Example 51, 4-(3-(2,3-difluorobenzyl)-[1,2,4]triazolo[4,3-a]pyridin-7-yl)-N-(1-methyl-1H-pyrazol-5-yl)pyrimidin-2-amine] were 2.6 nM and 8.9 nM.
Turning to `Cn1nccc1Nc1nccc(-c2ccn3c(Cc4cccc(Cl)c4Cl)nnc3c2)n1` [Example 57, 4-(3-(2,3-dichlorobenzyl)-[1,2,4]triazolo[4,3-a]pyridin-7-yl)-N-(1-methyl-1H-pyrazol-5-yl)pyrimidin-2-amine], the IC50 in test [1] stood at 0.5 nM; in test [2], 4.6 nM.
For the compound `Cn1nccc1Nc1nccc(-c2ccn3c(Cc4ccc(F)cc4F)nnc3c2)n1` [Example 67, 4-(3-(2,4-difluorobenzyl)-[1,2,4]triazolo[4,3-a]pyridin-7-yl)-N-(1-methyl-1H-pyrazol-5-yl)pyrimidin-2-amine], the IC50 in test [1] was determined as 2.8 nM; in test [2], 7.5 nM.
On to `Cn1nccc1Nc1cc(-c2ccn3c(Cc4ccc(F)cc4F)nnc3c2)ccn1` [Example 84, 4-(3-(2,4-difluorobenzyl)-[1,2,4]triazolo[4,3-a]pyridin-7-yl)-N-(1-methyl-1H-pyrazol-5-yl)pyridin-2-amine], for which the IC50 in test [1] is 3.2 nM; in test [2], 15.7 nM.
Take `COC(Cc1nnc2cc(-c3ccnc(Nc4ccnn4C)n3)ccn12)C(F)(F)F` (centres unmarked) [Example 108, N-(1-methyl-1H-pyrazol-5-yl)-4-(3-(3,3,3-trifluoro-2-methoxypropyl)-[1,2,4]triazolo[4,3-a]pyridin-7-yl)pyrimidin-2-amine]: the IC50 was determined as 3.4 nM in test [1] and 38.2 nM in test [2].
For `CCOCCc1nnc2cc(-c3ccnc(Nc4ccnn4C)n3)ccn12` [Example 111, 4-(3-(2-ethoxyethyl)-[1,2,4]triazolo[4,3-a]pyridin-7-yl)-N-(1-methyl-1H-pyrazol-5-yl)pyrimidin-2-amine], the IC50 came to 2.9 nM in test [1] and 27.9 nM in test [2].
For the compound `Fc1c(-c2ccnc(NC3CCOCC3)c2)ccn2c(Cc3ccc(Cl)cc3)nnc12` [Example 112, 4-(3-(4-chlorobenzyl)-8-fluoro-[1,2,4]triazolo[4,3-a]pyridin-7-yl)-N-(tetrahydro-2H-pyran-4-yl)pyridin-2-amine], the IC50 in test [1] amounted to 17 nM; in test [2], 862 nM.
As to `CN1CC(Oc2c(F)cccc2F)CC(c2nnc3cc(-c4ccnc(Nc5ccnn5C)n4)ccn23)C1` (centres unmarked) [Example 113, 4-(3-(5-(2,6-difluorophenoxy)-1-methylpiperidin-3-yl)-[1,2,4]triazolo[4,3-a]pyridin-7-yl)-N-(1-methyl-1H-pyrazol-5-yl)pyrimidin-2-amine], the IC50 in test [1] is 3.4 nM; in test [2], 38 nM.
Consider `CC[C@H](C)Cc1nnc2cc(-c3ccnc(Nc4ccnn4C)n3)ccn12` [Example 115, (S)—N-(1-methyl-1H-pyrazol-5-yl)-4-(3-(2-methylbutyl)-[1,2,4]triazolo[4,3-a]pyridin-7-yl)pyrimidin-2-amine], for which the 50% inhibitory concentration (IC50) came out at 2.8 nM in test [1] and 8.3 nM in test [2].
Take `Cn1nccc1Nc1nccc(-c2ccn3c([C@H](O)c4cccc(Cl)c4)nnc3c2)n1` [Example 116, (R)-(3-chlorophenyl)(7-(2-((1-methyl-1H-pyrazol-5-yl)amino)pyrimidin-4-yl)-[1,2,4]triazolo[4,3-a]pyridin-3-yl)methanol]: the results for the IC50 in test [1] and in test [2] were 3.3 nM and 19.3 nM, respectively.
On to `Cn1nccc1Nc1cc(-c2ccn3c([C@H](O)Cc4ccccc4)nnc3c2)ccn1` [Example 121, (R)-1-(7-(2-((1-methyl-1H-pyrazol-5-yl)amino)pyridin-4-yl)-[1,2,4]triazolo[4,3-a]pyridin-3-yl)-2-phenylethanol], for which the values for the IC50 in test [1] and in test [2] were 0.9 nM and 34.7 nM, respectively.
Take `COc1ccc(Cc2nnc3cc(-c4nc(NC5CCOCC5)ncc4F)ccn23)cc1` [Example 123, 5-fluoro-4-(3-(4-methoxybenzyl)-[1,2,4]triazolo[4,3-a]pyridin-7-yl)-N-(tetrahydro-2H-pyran-4-yl)pyrimidin-2-amine]: the IC50 in test [1] was 2.8 nM; in test [2], 25.6 nM.
As to `c1cc(-c2ccn3c(C4CCCNC4)nnc3c2)nc(NC2CCOCC2)n1` (centres unmarked) [Example 131, 4-(3-(piperidin-3-yl)-[1,2,4]triazolo[4,3-a]pyridin-7-yl)-N-(tetrahydro-2H-pyran-4-yl)pyrimidin-2-amine], the results for the IC50 in test [1] and in test [2] were 224 nM and 2380 nM, respectively.
For the compound `COc1ncc(F)cc1CN1CCCC(c2nnc3cc(-c4ccnc(NC5CCOCC5)n4)ccn23)C1` (centres unmarked) [Example 132, 4-(3-(1-((5-fluoro-2-methoxypyridin-3-yl)methyl)piperidin-3-yl)-[1,2,4]triazolo[4,3-a]pyridin-7-yl)-N-(tetrahydro-2H-pyran-4-yl)pyrimidin-2-amine], the IC50 is 197 nM in test [1] and above 5000 nM in test [2].
For the compound `CN1C(=O)CC(c2ccccc2)C1c1nnc2cc(-c3ccnc(NC4CCOCC4)n3)ccn12` (centres unmarked) [Example 136, 1-methyl-4-phenyl-5-(7-(2-((tetrahydro-2H-pyran-4-yl)amino)pyrimidin-4-yl)-[1,2,4]triazolo[4,3-a]pyridin-3-yl)pyrrolidin-2-one], the IC50 in test [1] came out at 171 nM.
As to `O=C(c1c(F)cccc1F)N1CCOC(c2nnc3cc(-c4ccnc(NC5CCOCC5)n4)ccn23)C1` (centres unmarked) [Example 140, (2,6-difluorophenyl)(2-(7-(2-((tetrahydro-2H-pyran-4-yl)amino)pyrimidin-4-yl)-[1,2,4]triazolo[4,3-a]pyridin-3-yl)morpholino)methanone], the IC50 came out at 7.5 nM in test [1] and 486 nM in test [2].
As for `Cn1nccc1Nc1nccc(-c2ccn3c(CC(C)(C)C)nnc3c2)n1` [Example 150, N-(1-methyl-1H-pyrazol-5-yl)-4-(3-neopentyl-[1,2,4]triazolo[4,3-a]pyridin-7-yl)pyrimidin-2-amine], the IC50 was found to be 2.8 nM in test [1] and 39.2 nM in test [2].
For the compound `Cn1nccc1Nc1nccc(-c2ccn3c(CC4CC5CCC4C5)nnc3c2)n1` (centres unmarked) [Example 163, 4-(3-(bicyclo[2.2.1]heptan-2-ylmethyl)-[1,2,4]triazolo[4,3-a]pyridin-7-yl)-N-(1-methyl-1H-pyrazol-5-yl)pyrimidin-2-amine], the IC50 in test [1] came to 2.4 nM; in test [2], 20.7 nM.
For `CC(C)Cc1nnc2cc(-c3ccnc(Nc4ccnn4C)n3)ccn12` [Example 169, 4-(3-isobutyl-[1,2,4]triazolo[4,3-a]pyridin-7-yl)-N-(1-methyl-1H-pyrazol-5-yl)pyrimidin-2-amine], the IC50 amounted to 2.7 nM in test [1] and 30 nM in test [2].
Regarding `c1cc(-c2ccn3c(C4CNCCO4)nnc3c2)nc(NC2CCOCC2)n1` (centres unmarked) [Example 387, 4-(3-(morpholin-2-yl)-[1,2,4]triazolo[4,3-a]pyridin-7-yl)-N-(tetrahydro-2H-pyran-4-yl)pyrimidin-2-amine], in test [1], the 50% inhibitory concentration (IC50) was 117 nM.
`Cc1cc(-c2nnc3cc(-c4ccnc(Nc5cnn(C)c5)n4)ccn23)nn1-c1ccc(F)cc1` [Example 419, 4-(3-(1-(4-fluorophenyl)-5-methyl-1H-pyrazol-3-yl)-[1,2,4]triazolo[4,3-a]pyridin-7-yl)-N-(1-methyl-1H-pyrazol-4-yl)pyrimidin-2-amine]: the IC50 in test [1] came to 135 nM.
